Structures can show the parent of a compound that is named as a salt.
Key:
Format in all cases: cell-based, mouse
[1] = test system: Hedgehog Signaling Pathway; assay: Gli-Luc reporter gene cell assay in C3H10T1/2/Gli-Luc cells stimulated with Shh; settings: 30 nM Shh, luciferase activity (RLU), read-out: IC50 values of compounds that inhibit Hh pathway
Method in brief: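 IC50 from nonlinear fit of luciferase RLU versus log compound concentration. Stably transfected C3H10T1/2/Gli-Luc cells received a 7-point compound series alongside Shh (30 nM in the added medium) for 24 h at 37 °C in DMEM/10% FBS, then were lysed for luciferase readout.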

[2] = test system: Hedgehog Signaling Pathway; assay: SAG-induced differentiation of C3H10T1/2 cells into osteoblastic cells, intracellular alkaline phosphatase activity; settings: 1 μM SAG, 5 days, alkaline phosphatase activity (OD405), read-out: IC50 values of compounds that inhibit Hh pathway
Method in brief: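 Mouse C3H10T1/2 cells were induced with SAG and exposed to compound (10 μM to 1 nM) for 5 days at 37 °C. Cells were lysed in 0.2% Triton, and alkaline phosphatase activity was read as OD405 over 30 min at 37 °C in pH 9.8 substrate buffer. IC50 came from a non-linear fit of background-subtracted OD405 against log concentration.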

[3] = test system: Hedgehog Signaling Pathway; assay: SHH-induced differentiation of C3H10T1/2 cells into osteoblastic cells, intracellular alkaline phosphatase activity; settings: 10 nM SHH-N, 5 days, alkaline phosphatase activity (OD405), read-out: IC50 values of compounds that inhibit Hh pathway
Method in brief: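 Hedgehog pathway inhibition was taken as loss of SHH-driven osteoblastic differentiation. Test compound (10 nM–10 μM) plus SHH-N (10 nM) was applied to C3H10T1/2 cells for 5 days, then lysate phosphatase turnover was measured as the 30-min OD405 change at 37 °C. IC50 was fitted from activity versus log dose.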

[4] = Mus musculus, C3H 10T1/2, 120 h

Row | Compound | IC50 ([1]; Mus musculus, C3H 10T1/2, 24 h) [nM] | IC50 [2, 4] [nM] | IC50 [3, 4] [nM] | IC50 ([1]; 24 hours, Dihydrochloride) [nM] | IC50 ([2]; Dihydrochloride) [nM] | IC50 ([3]; Dihydrochloride) [nM]
1 | C[C@@H]1CN(c2cc(Cl)c(C(=O)Nc3ccc(Cl)c(-c4nc5ccccc5[nH]4)c3)cc2F)C[C@H](C)N1C [Example 123, N-(3-(1H-benzo[d]imidazol-2-yl)-4-chlorophenyl)-2-chloro-5-fluoro-4-((3S,5R)-3,4,5-trimethylpiperazin-1-yl)benzamide] | 0.39 | 53 | 0.97 |  |  | 
2 | C[C@@H]1CN(c2ccc(C(=O)Nc3cnc(Cl)c(-c4nc5ccccc5[nH]4)c3)c(Cl)c2)C[C@H](C)O1 [Example 128, N-(5-(1H-benzo[d]imidazol-2-yl)-6-chloropyridin-3-yl)-2-chloro-4-((2S,6R)-2,6-dimethylmorpholino)benzamide] | 5.2 | 60 | 5.3 |  |  | 
3 | C[C@@H]1CN(c2ccc(C(=O)Nc3cnc(Cl)c(-c4nc5ccc(F)cc5[nH]4)c3)c(Cl)c2)C[C@H](C)N1C [Example 129, N-(5-(6-fluoro-1H-benzo[d]imidazol-2-yl)-6-chloropyridin-3-yl)-2-chloro-4-((3S,5R)-3,4,5-trimethylpiperazin-1-yl)benzamide] | 4 | 82 | 7.5 |  |  | 
4 | C[C@@H]1CN(c2ccc(C(=O)Nc3ccc(Cl)c(-c4nc5ccccc5[nH]4)c3)c(Cl)c2)C[C@H](C)N1C [Example 132, N-(3-(1H-benzo[d]imidazol-2-yl)-4-chlorophenyl)-2-chloro-4-((3S,5R)-3,4,5-trimethylpiperazin-1-yl)benzamide Dihydrochloride] |  |  |  | 0.74 | 28 | 0.53
5 | C[C@@H]1CN(c2ccc(C(=O)Nc3ccc(Cl)c(-c4nc5ccccc5[nH]4)c3)cc2Cl)C[C@H](C)N1C [Example 133, N-(3-(1H-benzo[d]imidazol-2-yl)-4-chlorophenyl)-3-chloro-4-((3S,5R)-3,4,5-trimethylpiperazin-1-yl)benzamide Dihydrochloride] |  |  |  | 1.6 | 54 | 6.3
6 | C[C@@H]1CN(c2ccc(C(=O)Nc3ccc(Cl)c(-c4ncc(-c5ccc(Cl)s5)[nH]4)c3)cc2Cl)C[C@H](C)N1C [Example 137, N-(3-(5-(5-chlorothiophen-2-yl)-1H-imidazol-2-yl)-4-chlorophenyl)-3-chloro-4-((3S,5R)-3,4,5-trimethylpiperazin-1-yl)benzamide] | 2.3 | 51 | 15 |  |  | 
7 | C[C@@H]1CN(c2ccc(C(=O)Nc3ccc(Cl)c(-c4ncc(-c5ccc(Cl)s5)[nH]4)c3)c(Cl)c2)C[C@H](C)N1C [Example 138, N-(3-(5-(5-chlorothiophen-2-yl)-1H-imidazol-2-yl)-4-chlorophenyl)-2-chloro-4-((3S,5R)-3,4,5-trimethylpiperazin-1-yl)benzamide] | 0.58 | 39 | 1.6 |  |  | 
8 | Cc1cc(N2C[C@@H](C)N(C)[C@@H](C)C2)ccc1C(=O)Nc1ccc(Cl)c(-c2ncc(-c3ccsc3)[nH]2)c1 [Example 139, N-(3-(5-(thiophen-3-yl)-1H-imidazol-2-yl)-4-chlorophenyl)-2-methyl-4-((3S,5R)-3,4,5-trimethylpiperazin-1-yl)benzamide] | 1.1 | 44 | 1.8 |  |  | 
9 | Cc1c(C(=O)Nc2ccc(Cl)c(-c3ncc(-c4ccsc4)[nH]3)c2)ccc(N2C[C@@H](C)N(C)[C@@H](C)C2)c1F [Example 141, N-(3-(5-(thiophen-3-yl)-1H-imidazol-2-yl)-4-chlorophenyl)-2-methyl-3-fluoro-4-((3S,5R)-3,4,5-trimethylpiperazin-1-yl)benzamide] | 0.35 | 9.4 | 0.24 |  |  | 

The remaining compounds from weak to strong by IC50 ([1]; Mus musculus, C3H 10T1/2, 24 h), led by results:

Row | IC50 ([1]; Mus musculus, C3H 10T1/2, 24 h) [nM] | IC50 [2, 4] [nM] | IC50 [3, 4] [nM] | IC50 ([1]; 24 hours, Dihydrochloride) [nM] | IC50 ([2]; Dihydrochloride) [nM] | IC50 ([3]; Dihydrochloride) [nM] | Compound
10 | 8.5 | 178 | 18 |  |  |  | C[C@@H]1CN(c2ccc(C(=O)Nc3cnc(Cl)c(-c4nc5ccc(Cl)cc5[nH]4)c3)c(Cl)c2)C[C@H](C)N1C [Example 130, N-(5-(6-chloro-1H-benzo[d]imidazol-2-yl)-6-chloropyridin-3-yl)-2-chloro-4-((3S,5R)-3,4,5-trimethylpiperazin-1-yl)benzamide]
11 | 2.3 | 81 | 25 |  |  |  | C[C@H]1CN(c2ccc(C(=O)Nc3ccc(Cl)c(-c4nc5ccccc5[nH]4)c3)c(Cl)c2)CCN1C [Example 126, (S)—N-(3-(1H-benzo[d]imidazol-2-yl)-4-chlorophenyl)-2-chloro-4-(3,4-dimethylpiperazin-1-yl)benzamide]
12 | 2.3 | 108 | 15 |  |  |  | Cc1cc(N2C[C@@H](C)N(C)[C@@H](C)C2)ccc1C(=O)Nc1ccc(Cl)c(-c2nc(C)c(-c3cccs3)[nH]2)c1 [Example 143, N-(3-(4-methyl-5-(thiophen-2-yl)-1H-imidazol-2-yl)-4-chlorophenyl)-2-methyl-4-((3S,5R)-3,4,5-trimethylpiperazin-1-yl)benzamide]
13 | 1.2 | 67 | 1.5 |  |  |  | Cc1csc(-c2cnc(-c3cc(NC(=O)c4ccc(N5C[C@@H](C)N(C)[C@@H](C)C5)cc4C)ccc3Cl)[nH]2)c1 [Example 135, N-(3-(5-(4-methylthiophen-2-yl)-1H-imidazol-2-yl)-4-chlorophenyl)-2-methyl-4-((3S,5R)-3,4,5-trimethylpiperazin-1-yl)benzamide]
14 | 1.1 | 34 | 1.1 |  |  |  | C[C@@H]1CN(c2ccc(C(=O)Nc3cnc(Cl)c(-c4nc5ccccc5[nH]4)c3)c(Cl)c2)C[C@H](C)N1C [Example 127, N-(5-(1H-benzo[d]imidazol-2-yl)-6-chloropyridin-3-yl)-2-chloro-4-((3S,5R)-3,4,5-trimethylpiperazin-1-yl)benzamide]
15 | 0.97 | 9.2 | 4 |  |  |  | Cc1csc(-c2cnc(-c3cc(NC(=O)c4ccc(N5C[C@@H](C)N(C)[C@@H](C)C5)cc4Cl)ccc3Cl)[nH]2)c1 [Example 136, N-(3-(5-(4-methylthiophen-2-yl)-1H-imidazol-2-yl)-4-chlorophenyl)-2-chloro-4-((3S,5R)-3,4,5-trimethylpiperazin-1-yl)benzamide]
16 | 0.8 | 38 | 0.49 |  |  |  | CCN1[C@H](C)CN(c2ccc(C(=O)Nc3ccc(Cl)c(-c4nc5ccccc5[nH]4)c3)c(Cl)c2)C[C@@H]1C [Example 124, N-(3-(1H-benzo[d]imidazol-2-yl)-4-chlorophenyl)-2-chloro-4-((3S,5R)-4-ethyl-3,5-dimethylpiperazin-1-yl)benzamide]
17 | 0.57 | 23 | 1.2 |  |  |  | CC(C)N1[C@H](C)CN(c2ccc(C(=O)Nc3ccc(Cl)c(-c4nc5ccccc5[nH]4)c3)c(Cl)c2)C[C@@H]1C [Example 125, N-(3-(1H-benzo[d]imidazol-2-yl)-4-chlorophenyl)-2-chloro-4-((3S,5R)-4-isopropyl-3,5-dimethylpiperazin-1-yl)benzamide]
18 | 0.39 | 25 | 0.49 |  |  |  | C[C@@H]1CN(c2ccc(C(=O)Nc3ccc(Cl)c(-c4ncc(-c5ccco5)[nH]4)c3)c(C(F)(F)F)c2)C[C@H](C)N1C [Example 146, N-(3-(5-(furan-2-yl)-1H-imidazol-2-yl)-4-chlorophenyl)-2-(trifluoro-methyl)-4-((3S,5R)-3,4,5-trimethylpiperazin-1-yl)benzamide]
19 | 0.38 | 3.3 | 0.93 |  |  |  | Cc1cc(N2C[C@@H](C)N(C)[C@@H](C)C2)ccc1C(=O)Nc1ccc(Cl)c(-c2ncc(-c3ccco3)[nH]2)c1 [Example 145, N-(3-(5-(furan-2-yl)-1H-imidazol-2-yl)-4-chlorophenyl)-2-methyl-4-((3S,5R)-3,4,5-trimethylpiperazin-1-yl)benzamide]
20 | 0.26 | 15 | 0.33 |  |  |  | Cc1c(C(=O)Nc2ccc(Cl)c(-c3ncc(-c4ccco4)[nH]3)c2)ccc(N2C[C@@H](C)N(C)[C@@H](C)C2)c1F [Example 148, N-(3-(5-(furan-2-yl)-1H-imidazol-2-yl)-4-chlorophenyl)-2-methyl-3-fluoro-4-((3S,5R)-3,4,5-trimethylpiperazin-1-yl)benzamide]
21 | 0.21 | 4.8 | 0.2 |  |  |  | C[C@@H]1CN(c2ccc(C(=O)Nc3ccc(Cl)c(-c4ncc(-c5ccsc5)[nH]4)c3)c(Cl)c2)C[C@H](C)N1C [Example 140, N-(3-(5-(thiophen-3-yl)-1H-imidazol-2-yl)-4-chlorophenyl)-2-chloro-4-((3S,5R)-3,4,5-trimethylpiperazin-1-yl)benzamide]
22 | 0.15 | 17 | 0.82 |  |  |  | C[C@@H]1CN(c2ccc(C(=O)Nc3ccc(Cl)c(-c4ncc(-c5ccco5)[nH]4)c3)c(Cl)c2)C[C@H](C)N1C [Example 144, N-(3-(5-(furan-2-yl)-1H-imidazol-2-yl)-4-chlorophenyl)-2-chloro-4-((3S,5R)-3,4,5-trimethylpiperazin-1-yl)benzamide]

Source: patent publication US10676468B2, “N-(3-heteroarylaryl)-4-arylarylcarboxamides and analogs as hedgehog pathway inhibitors and use thereof” (IMPACT Therapeutics, Inc., priority 2012, dated 2020)
